Source: patent US12281149B2, “Modulators of G-protein coupled receptors” (priority 2021, dated 2025)
*1 amine or outer side, *2 acyl side, *3 side chain or, on linkers, in order; H or OH if unused. Where a SMILES comes first, the peptide text is derived from it. Side-chain parts run from the residue outwards. [ ]: non-standard residue; d: D form. The star is where a group is joined. Isobutyryl(2-(3-CN-5-F-Ph)) = CC(C)(C(=O)*)c1cc(F)cc(C#N)c1; C20 diacid = O=C(O)CCCCCCCCCCCCCCCCCCC(=O)*; γGlu = O=C(O)[C@H](CCC(=O)[*:2])N[*:1]; X22 = CC(C)(C(=O)*)c1ccc(C#N)cc1F; X70 = CC[C@H](CN[*:1])C(=O)[*:2]; X13 = CC(C)(C(=O)*)c1cccc(F)c1F; X37 = CC(C)(C(=O)*)c1cc(F)ccc1F; X7 = CC(C)(C(=O)*)c1cccc(C#N)c1; AEEA = NCCOCCOCC(=O)O; Aib = CC(C)(N)C(=O)O; βAla = NCCC(=O)O

Experiments:
Assay type in all cases: cell-based
[1] = biological target: T1, GLP-1 receptor (Homo sapiens, UniProt P43220); test: HitHunter cAMP assay, GLP-1 receptor; settings: for Emax: CHO cells, cAMP, normalized to maximum signal from GLP-1 (high) and DMSO (low), read-out: Emax GLP-1R
[2] = biological target: T2, GIP receptor (Homo sapiens, UniProt P48546); test: HitHunter cAMP assay, GIP receptor; settings: for Emax: CHO cells, cAMP, normalized to maximum signal from GIP (high) and DMSO (low), read-out: Emax GIP-1R
T2 sequence (P48546 22-466): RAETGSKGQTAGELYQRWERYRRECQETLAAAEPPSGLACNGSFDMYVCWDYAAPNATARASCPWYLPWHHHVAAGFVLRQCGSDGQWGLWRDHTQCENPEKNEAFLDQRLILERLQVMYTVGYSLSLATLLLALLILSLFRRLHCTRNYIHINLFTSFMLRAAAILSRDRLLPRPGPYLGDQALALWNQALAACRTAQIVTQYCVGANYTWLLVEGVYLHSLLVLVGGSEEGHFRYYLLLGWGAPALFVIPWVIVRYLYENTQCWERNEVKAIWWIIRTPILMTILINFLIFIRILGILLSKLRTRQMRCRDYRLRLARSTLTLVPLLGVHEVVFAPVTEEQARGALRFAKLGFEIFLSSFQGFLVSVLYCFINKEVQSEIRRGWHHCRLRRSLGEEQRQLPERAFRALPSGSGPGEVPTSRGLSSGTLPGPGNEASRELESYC
Description: CAMP accumulation was measured in Chinese hamster ovary (CHO) cells stably expressing the human GLP-1 receptor or GIP receptor using the HitHunter CAMP Assay for Small Molecules Kit (Eurofins). Briefly, cells were grown in Ham's F12 Nutrient Mix with 10% FBS and lifted with Cell dissociation buffer, Enzyme free, PBS based (ThermoFisher). Cells were pelleted and resuspended in Hank's buffered saline solution with 10 mM Hepes and 625 μM 3-isobutyl-1-methylxanthine. The antibody reagent was then added to cells at a 1:2 ratio and 5 μL of mixture was seeded in 384-well small volume white assay plates, at 10,000 cells/well. Cells were then treated with 50 nl compound in DMSO using an ECHO 550 acoustic dispenser (Labcyte) in a 20-point dose response format in triplicate for 30 min. Cells were the lysed and detection reagents added according to the manufacturer's protocol. After overnight incubation, luminescence was measured using a Perkin Elmer Envision plate reader. Raw data was normalized to the maximum signal from GLP-1 or GIP (high) and DMSO (low). Dose response curves were analyzed using GraphPad Prism 9.0.

[3] = biological target: T2, GIP receptor; test: PathHunter β-arrestin assay, GIP receptor; design: host or cells: PathHunter CHO-K1 GIPR β-Arrestin Cell Line
[4] = biological target: T1, GLP-1 receptor; test: PathHunter β-arrestin assay, GLP-1 receptor; design: host or cells: PathHunter CHO-K1 GLP1R β-Arrestin Cell Line
[5] = CHO cells stably expressing human GLP-1 receptor, cAMP accumulation, 30 min, read-out: EC50 GLP-1R
[6] = CHO cells stably expressing GIP receptor, cAMP accumulation, 30 min, read-out: EC50 GIP-1R
[7] = β-arrestin-2 recruitment, PathHunter CHO-K1 GIPR β-Arrestin Cell Line, 90 min at 37° C., normalized to GIP, read-out: GIPR β Arrestin EC50
[8] = β-arrestin-2 recruitment, PathHunter CHO-K1 GLP1R β-Arrestin Cell Line, 90 min at 37° C., normalized to GLP-1, read-out: GLP-1R β Arrestin EC50

T1 sequence (P43220 24-463): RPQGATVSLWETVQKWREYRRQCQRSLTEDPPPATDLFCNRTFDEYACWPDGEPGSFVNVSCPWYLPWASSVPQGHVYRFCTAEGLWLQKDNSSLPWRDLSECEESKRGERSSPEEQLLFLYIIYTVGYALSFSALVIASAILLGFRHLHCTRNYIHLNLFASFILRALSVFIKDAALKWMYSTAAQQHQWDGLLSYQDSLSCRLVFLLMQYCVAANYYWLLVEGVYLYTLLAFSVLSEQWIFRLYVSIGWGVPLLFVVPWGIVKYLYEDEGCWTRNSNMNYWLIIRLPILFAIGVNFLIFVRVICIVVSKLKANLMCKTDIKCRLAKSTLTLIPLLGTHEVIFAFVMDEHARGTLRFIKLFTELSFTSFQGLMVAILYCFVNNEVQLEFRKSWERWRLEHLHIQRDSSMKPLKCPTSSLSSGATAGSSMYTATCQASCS

| SMILES | EC50 [1, 5] [nM] | Emax [1] [%] | EC50 [2, 6] [nM] | Emax [2] [%] | EC50 [3, 7] [nM] | EC50 [4, 8] [nM] | EC50 [1] [nM] | EC50 [2] [nM] | EC50 [3] [nM] | EC50 [4] [nM] |
| --- | --- | --- | --- | --- | --- | --- | --- | --- | --- | --- |
| CC[C@H](C)[C@H](NC(=O)[C@H](CC(C)C)NC(=O)[C@H](Cc1c[nH]c2ccccc12)NC(=O)[C@H](CCC(N)=O)NC(=O)[C@@H](NC(=O)[C@H](Cc1ccccc1)NC(=O)[C@H](C)NC(=O)[C@H](CCCCNC(=O)COCCOCCNC(=O)COCCOCCNC(=O)CC[C@H](NC(=O)CCCCCCCCCCCCCCCCCCC(=O)O)C(=O)O)NC(=O)[C@H](CCC(N)=O)NC(=O)[C@H](C)NC(=O)[C@@H](NC(=O)[C@H](CCCCN)NC(=O)[C@H](CC(=O)O)NC(=O)[C@H](CC(C)C)NC(=O)C(C)(C)NC(=O)[C@@H](NC(=O)[C@H](CO)NC(=O)[C@H](Cc1ccc(O)cc1)NC(=O)[C@H](CC(=O)O)NC(=O)[C@H](CO)NC(=O)[C@@H](NC(=O)[C@H](Cc1ccccc1)NC(=O)[C@@H](NC(=O)CNC(=O)[C@H](CCC(=O)O)NC(=O)CCNC(=O)C(C)(C)c1cc(F)ccc1F)[C@@H](C)O)[C@@H](C)O)[C@@H](C)CC)[C@@H](C)CC)C(C)C)C(=O)N[C@@H](C)C(=O)NCC(=O)NCC(=O)N1CCC[C@H]1C(=O)N[C@@H](CO)C(=O)N[C@@H](CO)C(=O)NCC(=O)N[C@@H](C)C(=O)N1CCC[C@H]1C(=O)N1CCC[C@H]1C(=O)N1CCC[C@H]1C(=O)N[C@@H](CO)C(N)=O [Compound 146] ({X37-βAla}-EGTFTSDYSI[Aib]LDKIAQK([AEEA-AEEA-γGlu-C20 diacid])AFVQWLIAGGPSSGAPPPS-NH2) | 0.1 to 1 | 102 | 1 to 10 | 104 | < 1000 | > 1000 |  |  |  |  |
| CC[C@H](C)[C@H](NC(=O)[C@H](CC(C)C)NC(=O)[C@H](Cc1c[nH]c2ccccc12)NC(=O)[C@H](CCC(N)=O)NC(=O)[C@@H](NC(=O)[C@H](Cc1ccccc1)NC(=O)[C@H](C)NC(=O)[C@H](CCCCNC(=O)COCCOCCNC(=O)COCCOCCNC(=O)CC[C@H](NC(=O)CCCCCCCCCCCCCCCCCCC(=O)O)C(=O)O)NC(=O)[C@H](CCC(N)=O)NC(=O)[C@H](C)NC(=O)[C@@H](NC(=O)[C@H](CCCCN)NC(=O)[C@H](CC(=O)O)NC(=O)[C@H](CC(C)C)NC(=O)C(C)(C)NC(=O)[C@@H](NC(=O)[C@H](CO)NC(=O)[C@H](Cc1ccc(O)cc1)NC(=O)[C@H](CC(=O)O)NC(=O)[C@H](CO)NC(=O)[C@@H](NC(=O)[C@H](Cc1ccccc1)NC(=O)[C@@H](NC(=O)CNC(=O)[C@H](CCC(=O)O)NC(=O)CCNC(=O)C(C)(C)c1cccc(F)c1F)[C@@H](C)O)[C@@H](C)O)[C@@H](C)CC)[C@@H](C)CC)C(C)C)C(=O)N[C@@H](C)C(=O)NCC(=O)NCC(=O)N1CCC[C@H]1C(=O)N[C@@H](CO)C(=O)N[C@@H](CO)C(=O)NCC(=O)N[C@@H](C)C(=O)N1CCC[C@H]1C(=O)N1CCC[C@H]1C(=O)N1CCC[C@H]1C(=O)N[C@@H](CO)C(N)=O [Compound 147] ({X13-βAla}-EGTFTSDYSI[Aib]LDKIAQK([AEEA-AEEA-γGlu-C20 diacid])AFVQWLIAGGPSSGAPPPS-NH2) | 0.1 to 1 | 99 | 0.1 to 1 | 102 | < 1000 | > 1000 |  |  |  |  |
| CC[C@H](CNC(=O)C(C)(C)c1cc(F)cc(C#N)c1)C(=O)N[C@@H](CCC(=O)O)C(=O)NCC(=O)N[C@H](C(=O)N[C@@H](Cc1ccccc1)C(=O)N[C@H](C(=O)N[C@@H](CO)C(=O)N[C@@H](CC(=O)O)C(=O)N[C@@H](Cc1ccc(O)cc1)C(=O)N[C@@H](CO)C(=O)N[C@H](C(=O)NC(C)(C)C(=O)N[C@@H](CC(C)C)C(=O)N[C@@H](CC(=O)O)C(=O)N[C@@H](CCCCN)C(=O)N[C@H](C(=O)N[C@@H](C)C(=O)N[C@@H](CCC(N)=O)C(=O)N[C@@H](CCCCNC(=O)COCCOCCNC(=O)COCCOCCNC(=O)CC[C@H](NC(=O)CCCCCCCCCCCCCCCCCCC(=O)O)C(=O)O)C(=O)N[C@@H](C)C(=O)N[C@@H](Cc1ccccc1)C(=O)N[C@H](C(=O)N[C@@H](CCC(N)=O)C(=O)N[C@@H](Cc1c[nH]c2ccccc12)C(=O)N[C@@H](CC(C)C)C(=O)N[C@H](C(=O)N[C@@H](C)C(=O)NCC(=O)NCC(=O)N1CCC[C@H]1C(=O)N[C@@H](CO)C(=O)N[C@@H](CO)C(=O)NCC(=O)N[C@@H](C)C(=O)N1CCC[C@H]1C(=O)N1CCC[C@H]1C(=O)N1CCC[C@H]1C(=O)N[C@@H](CO)C(N)=O)[C@@H](C)CC)C(C)C)[C@@H](C)CC)[C@@H](C)CC)[C@@H](C)O)[C@@H](C)O [Compound 148] ({Isobutyryl(2-(3-CN-5-F-Ph))}-[X70]EGTFTSDYSI[Aib]LDKIAQK([AEEA-AEEA-γGlu-C20 diacid])AFVQWLIAGGPSSGAPPPS-NH2) | 1 to 10 | 99 | 10 to 100 | 101 | > 1000 | > 1000 |  |  |  |  |
| CC[C@H](C)[C@H](NC(=O)[C@H](CC(C)C)NC(=O)[C@H](Cc1c[nH]c2ccccc12)NC(=O)[C@H](CCC(N)=O)NC(=O)[C@@H](NC(=O)[C@H](Cc1ccccc1)NC(=O)[C@H](C)NC(=O)[C@H](CCCCNC(=O)COCCOCCNC(=O)COCCOCCNC(=O)CC[C@H](NC(=O)CCCCCCCCCCCCCCCCCCC(=O)O)C(=O)O)NC(=O)[C@H](CCC(N)=O)NC(=O)[C@H](C)NC(=O)[C@@H](NC(=O)[C@H](CCCCN)NC(=O)[C@H](CC(=O)O)NC(=O)[C@H](CC(C)C)NC(=O)C(C)(C)NC(=O)[C@@H](NC(=O)[C@H](CO)NC(=O)[C@H](Cc1ccc(O)cc1)NC(=O)[C@H](CC(=O)O)NC(=O)[C@H](CO)NC(=O)[C@@H](NC(=O)[C@H](Cc1ccccc1)NC(=O)[C@@H](NC(=O)CNC(=O)[C@H](CCC(=O)O)NC(=O)CCNC(=O)C(C)(C)c1ccc(C#N)cc1F)[C@@H](C)O)[C@@H](C)O)[C@@H](C)CC)[C@@H](C)CC)C(C)C)C(=O)N[C@@H](C)C(=O)NCC(=O)NCC(=O)N1CCC[C@H]1C(=O)N[C@@H](CO)C(=O)N[C@@H](CO)C(=O)NCC(=O)N[C@@H](C)C(=O)N1CCC[C@H]1C(=O)N1CCC[C@H]1C(=O)N1CCC[C@H]1C(=O)N[C@@H](CO)C(N)=O [Compound 149] ({X22-βAla}-EGTFTSDYSI[Aib]LDKIAQK([AEEA-AEEA-γGlu-C20 diacid])AFVQWLIAGGPSSGAPPPS-NH2) | 0.1 to 1 | 98 | 1 to 10 | 96 | < 1000 | > 1000 |  |  |  |  |
| CC[C@H](C)[C@H](NC(=O)[C@H](CC(C)C)NC(=O)[C@H](Cc1c[nH]c2ccccc12)NC(=O)[C@H](CCC(N)=O)NC(=O)[C@@H](NC(=O)[C@H](Cc1ccccc1)NC(=O)[C@H](C)NC(=O)[C@H](CCCCNC(=O)COCCOCCNC(=O)COCCOCCNC(=O)CC[C@H](NC(=O)CCCCCCCCCCCCCCCCCCC(=O)O)C(=O)O)NC(=O)[C@H](CCC(N)=O)NC(=O)[C@H](C)NC(=O)[C@@H](NC(=O)[C@H](CCCCN)NC(=O)[C@H](CC(=O)O)NC(=O)[C@H](CC(C)C)NC(=O)C(C)(C)NC(=O)[C@@H](NC(=O)[C@H](CO)NC(=O)[C@H](Cc1ccc(O)cc1)NC(=O)[C@H](CC(=O)O)NC(=O)[C@H](CO)NC(=O)[C@@H](NC(=O)[C@H](Cc1ccccc1)NC(=O)[C@@H](NC(=O)CNC(=O)[C@H](CCC(=O)O)NC(=O)CCNC(=O)C(C)(C)c1cccc(C#N)c1)[C@@H](C)O)[C@@H](C)O)[C@@H](C)CC)[C@@H](C)CC)C(C)C)C(=O)N[C@@H](C)C(=O)NCC(=O)NCC(=O)N1CCC[C@H]1C(=O)N[C@@H](CO)C(=O)N[C@@H](CO)C(=O)NCC(=O)N[C@@H](C)C(=O)N1CCC[C@H]1C(=O)N1CCC[C@H]1C(=O)N1CCC[C@H]1C(=O)N[C@@H](CO)C(N)=O [Compound 150] ({X7-βAla}-EGTFTSDYSI[Aib]LDKIAQK([AEEA-AEEA-γGlu-C20 diacid])AFVQWLIAGGPSSGAPPPS-NH2) |  | 103 |  | 91 |  |  | 0.1 to 1 | 0.1 to 1 | < 1000 | > 1000 |
